Reference: a melting point compilation (Tetko et al.; mined from patent text by program, amines drawn as free bases though some values may be those of a salt)

SMILES	melting point [°C]
CC(=O)N[C@@H](Cc1ccc(-c2c3ccccc3cc3ccccc23)cc1)C(=O)O	76
CCC(C)Sc1cc(C(F)(F)F)ccc1C(=O)c1cnoc1C1CC1 (stereo not given)	75.6 to 76.4
CC(C)(C)OC(=O)N1C2CCC(C2)N1CC(O)C(Cc1ccccc1)NC(=O)OCc1ccccc1 (mixture of isomers)	119 to 126
CC1(C)CC(N(CCO)c2c([O-])[c+](N(CCO)C3CC(C)(C)NC(C)(C)C3)[c+]2[O-])CC(C)(C)N1	309 to 311
O=C(O)COc1cccc2c1CCc1sc(SCCCC(c3ccccc3)c3ccccc3)nc1-2	136 to 138
COCC1(C)Oc2ccc(C#N)cc2C(n2ccccc2=O)C1O (stereo not given)	210 to 212
CC(=O)Nc1cccc(C=Cc2nc3c(c(=O)n(C)c(=O)n3C)n2C)c1	> 300
Cc1nn(-c2c(Cl)cc(C(F)(F)F)cc2Cl)cc1C#C[Si](C)(C)C	76 to 78
Cc1ccc(S(=O)(=O)N(C(=O)OC(C)(C)C)[C@@H]2CCCC[C@H]2N)cc1	137 to 139
COCC1CN(c2ccc(C3CCC(CCNC(C)=O)CC3)cc2)C(=O)O1 (racemic)	120 to 122
Cc1ccc(C)n1CCNC(=O)Nc1ccc(Cl)cc1	175 to 177
N#CC1CCc2cc(C(=O)O)ccc2C1 (stereo not given)	231 to 236
CCCSc1ncnc2c1ncn2C1CC(F)C(CO)O1 (stereo not given)	85 to 86
COc1cc(C(C)C(=O)O)cc2ccc3ccccc3c(=O)c12 (stereo not given)	144 to 147
CC1(C)Cc2c(c(N3CCCC3)nc3sc4c(NCc5ccc(S(N)(=O)=O)cc5)ncnc4c23)CO1	295
COc1cc(I)cc(OC)c1SC	103 to 104
CC1=CC(C)(C)N2C(=O)C(=O)c3cc(C)cc1c32	157 to 161
Clc1ccc2oc(C3CCNCC3)cc2c1	77 to 78
CCOC(=O)c1sc(-c2ccc3c(=O)n(CC(C)C)c(CNC(=O)OCC4c5ccccc5-c5ccccc54)c(-c4ccccc4)c3c2)nc1C	157 to 158
CCc1nc(N)sc1-c1ccncc1	209 to 211
Cn1c(C(F)(F)F)ccc(-c2cc([N+](=O)[O-])c(F)cc2F)c1=O	115 to 118
C=CCCO[C@@H](Cc1ccc(OCCc2nc(-c3ccc(C(C)C)cc3)oc2C)c2ccsc12)C(=O)O	124 to 126
Nc1cc(=O)n(Cc2ccc(-c3ccccc3)cc2)[nH]1	185 to 186
Cn1cncc1-c1cc(C=NN(CCC(C)(C)O)C(N)=S)nc(NC2CCN(S(C)(=O)=O)CC2)n1	204 to 206
COC(=O)c1cccc2nc(OCC(F)(F)F)n(Cc3ccc(-c4ccccc4-c4nnn[nH]4)cc3)c12	210 to 212

SMILES	melting point [°C]
O=C(Nc1ccc(-n2nc(C(F)(F)F)cc2C(F)(F)F)cc1)c1cccc(Cl)c1	142 to 144
CC(=O)Oc1cc2nc[nH]c(=O)c2cc1OC(C)=O	235 to 237
Cc1ccc(NCc2ccc(/C=C/C(=O)O)cc2)cc1Nc1nccc(-c2cccnc2)n1	234 to 242
CCOC(=O)CON(CC)C(=S)Nc1ccccc1C(C)C	57 to 58
COc1c(-c2nnc(C)s2)cc2oc(=O)c(C)c(C)c2c1C	201 to 203
CN1CCN(c2cccc3c2C[C@H](NC(=O)c2cccc(OS(C)(=O)=O)c2)CC3)CC1	159 to 160
CC(=O)c1cn(C)c2ccc(C)cc12	119 to 121
Cc1cc(C(F)(C(F)(F)F)C(F)(F)F)cc(C)c1NC(=O)c1cc(F)c(C#N)c(NC(=O)c2ccccc2)c1F	245 to 248
COc1ccc(C(=O)C2=C(c3ccccc3)c3ccccc3S2=O)cc1 (stereo not given)	118 to 120
CC(O)c1cc(Br)ccc1N (stereo not given)	95 to 96
O=C1OC(O)c2cccc(O)c21 (stereo not given)	124 to 126
CC(C)(C)OC(=O)Nc1ccc(Cl)nc1	126 to 127
Oc1nn(-c2ccc(Cl)c(Cl)c2)cc1-c1ccccc1	244 to 245
COc1ccc(-c2[nH]nc3c2C(=O)c2c(NC(=O)NNC(=O)c4ccccc4O)cccc2-3)cc1	280
CS(=O)(=O)c1ccc(-c2c(-c3ccc(F)cc3)nc3sccn23)cc1	184 to 185
Cc1ccc(CC(N)=O)cn1	175 to 177
CC1(C)CCC(C)(C)c2cc(-c3cc(C=CC(=O)O)ccc3O)c(OCc3ccc(Cl)cc3)cc21	147 to 149
CC(C)(C)c1cc(Br)c(O)c(Br)c1	65 to 69
Cc1ccc(S(=O)(=O)NC(Cc2ccccc2)C(=O)O)cc1 (stereo not given)	134 to 135
CC(C)(O)CC12C=CC=CC1C(=O)NC2=O (stereo not given)	104 to 105
CN1Cc2c(C(N)=O)ncn2-c2ccc(F)c(Cl)c2C1=O	292 to 294
CC12CCC3C(CCC4=C(N)C(=O)CCC43C)C1CCC2=O (stereo not given)	186 to 188
CCC(=O)N1C(=O)C(=O)c2cc(Cl)ccc21	160 to 162
Cc1ccc(S(=O)(=O)N(CCBr)c2ccc(Cl)cc2[N+](=O)[O-])cc1	70 to 72
O=Cc1c(Br)nc(Sc2ccccc2)n1Cc1cc2c(cc1Cl)OCO2	155
